Assay results: publication PMC10541198, “Specific quinone reductase 2 inhibitors reduce metabolic burden and reverse Alzheimer’s disease phenotype in mice” (The Journal of Clinical Investigation, 2023)
Several values for one entry are separate records, joined by “and”; a condition that tells them apart may be missing. Equal values may be shown once.

How the values were obtained:
[1] = system: 5xFAD mice; assay: Open field in 5xFAD mice; assay type: in vivo, mouse; conditions: for hind-limb rearing frequency / maximum movement bout duration / meandering / proportion of time moving / total distance traveled / total movement duration / average velocity: 5xFAD 1 month; for Sup. Fig. 5-2C, open field parameter / Sup. Fig. 5-2D, open field parameter / Sup. Fig. 5-2E, open field parameter / Sup. Fig. 5-2F, open field parameter / Sup. Fig. 5-2G, open field parameter / Sup. Fig. 5-2H, open field parameter / Sup. Fig. 5-2I, open field parameter: individual animals
Procedure: Mice were individually placed within a cage and taken to a dimly lit room containing an open field arena 50 x 50 cm in size. They were gi ve n 10 min prior to be i ng placed within the arena, where f or a period of 5 min they were allowed to explore. Two weeks later, this was repeated. The mice were filmed with an Ikegami ICD-49E camera with EthoVision 14 (Noldus Information Technology). Th e fl oor was ei ther whit e or black,dependingon mous e coat c ol or, to allow automatic analysisof movement par am et ers, apar t from rearing which was manually counted. […]

[2] = system: 4-HNE; assay: Immunoblot of 4-HNE 3 hours after CA1 microinjection; assay type: in vivo, mouse
Procedure: In order to evaluate the efficacy of some of the leading QR2is in vivo, we carried out double-blind experiments using 2 different modalities (Supplemental Methods), measuring memory that is dependent on different brain areas. First, cortical memory was tested using incidental novel taste learning (see Methods), in which an unfamiliar, but palatable and safe, taste is given for the first time, and the memory for this newly learned taste is then assessed 2 days later. This is done by measuring the volume of the taste consumed upon subsequent exposure to it ([32]) (Figure 4A). […] Next, hippocampal-dependent learning was evaluated using delay fear conditioning (DFC; see Methods) ([33]). Mice were cannulated to the CA1 region of the hippocampus and were microinjected with YB-537 (1 μL of 5 μM, Figure 4, D and H) or vehicle. […] In order to evaluate any possible effect of acute QR2i microinjection on metabolic stress in the mouse brain, ISR activation was measured by quantifying total and phosphorylated eukaryotic initiation factor 2 α (eIF2α) levels (Supplemental Figure 3A) and lipid peroxidation product, 4-hydroxynonenal (4-HNE; Supplemental Figure 3B), by immunoblot 3 hours after the injection. […]

SMILES: Cc1ccc(-c2cn3cccc(C)c3n2)cc1S(=O)(=O)N1CCNCC1 [YB-537]
- hind-limb rearing frequency ([1]; both sexes): 35.72 ± 3.292
- maximum movement bout duration ([1]; both sexes): 8.061 ± 1.322 s
- meandering ([1]; both sexes): 733.4 ± 42.8 deg/cm
- proportion of time moving ([1]; both sexes): 81.44 ± 1.134%
- total distance traveled ([1]; both sexes): 3244 ± 237.9 cm
- total movement duration ([1]; both sexes): 244.3 ± 3.402 s
- average velocity ([1]; both sexes, n=16): 10.9 ± 0.800 cm/s
- hind-limb rearing frequency ([1]; females): 35.29 ± 4.894
- maximum movement bout duration ([1]; females): 9.677 ± 3.012 s
- meandering ([1]; females): 696.3 ± 65.26 deg/cm
- proportion of time moving ([1]; females): 81.84 ± 1.856%
- total distance traveled ([1]; females): 3581 ± 484.5 cm
- total movement duration ([1]; females): 245.5 ± 5.568 s
- average velocity ([1]; females, n=7): 12.03 ± 1.625 cm/s
- hind-limb rearing frequency ([1]; males): 36.06 ± 4.703
- maximum movement bout duration ([1]; males): 6.804 ± 0.2919 s
- meandering ([1]; males): 762.2 ± 58.17 deg/cm
- proportion of time moving ([1]; males): 81.13 ± 1.5%
- total distance traveled ([1]; males): 2983 ± 179.3 cm
- total movement duration ([1]; males): 243.4 ± 4.5 s
- average velocity ([1]; males, n=9): 10.01 ± 0.611 cm/s
- Sup. Fig. 5-2C, open field parameter ([1]; Females): 10.98 and 10.27 and 10.24 and 21.02 and 13.07 and 7.45 and 11.20
- Sup. Fig. 5-2D, open field parameter ([1]; Females): 3256.8 and 3049.8 and 3043.6 and 6259.0 and 3891.4 and 2217.1 and 3346.6
- Sup. Fig. 5-2E, open field parameter ([1]; Females): 773.0 and 764.4 and 714.5 and 402.2 and 601.2 and 962.5 and 656.3
- Sup. Fig. 5-2F, open field parameter ([1]; Females): 6.70 and 6.10 and 6.62 and 27.48 and 6.06 and 5.20 and 9.58
- Sup. Fig. 5-2G, open field parameter ([1]; Females): 244.56 and 241.26 and 242.64 and 269.82 and 249.06 and 220.20 and 251.04
- Sup. Fig. 5-2H, open field parameter ([1]; Females): 81.52 and 80.42 and 80.88 and 89.94 and 83.02 and 73.40 and 83.68
- Sup. Fig. 5-2I, open field parameter ([1]; Females): 50 and 30.5 and 32 and 31.5 and 55 and 17 and 31
- Sup. Fig. 5-2C, open field parameter ([1]; Males + Females): 10.98 and 10.27 and 10.24 and 21.02 and 7.23 and 10.34 and 8.54 and 12.00 and 10.63 and 9.25 and 12.61 and 11.34 and 8.16 and 13.07 and 7.45 and 11.20
- Sup. Fig. 5-2D, open field parameter ([1]; Males + Females): 3256.8 and 3049.8 and 3043.6 and 6259.0 and 2163.2 and 3078.1 and 2557.7 and 3556.2 and 3161.5 and 2756.6 and 3753.0 and 3376.0 and 2440.2 and 3891.4 and 2217.1 and 3346.6
- Sup. Fig. 5-2E, open field parameter ([1]; Males + Females): 773.0 and 764.4 and 714.5 and 402.2 and 993.0 and 822.7 and 744.6 and 500.6 and 644.6 and 955.7 and 543.5 and 756.2 and 899.4 and 601.2 and 962.5 and 656.3
- Sup. Fig. 5-2F, open field parameter ([1]; Males + Females): 6.70 and 6.10 and 6.62 and 27.48 and 6.46 and 7.38 and 6.24 and 6.00 and 7.90 and 5.98 and 6.32 and 8.40 and 6.56 and 6.06 and 5.20 and 9.58
- Sup. Fig. 5-2G, open field parameter ([1]; Males + Females): 244.56 and 241.26 and 242.64 and 269.82 and 228.20 and 238.00 and 244.72 and 264.44 and 254.26 and 226.58 and 258.62 and 243.36 and 232.42 and 249.06 and 220.20 and 251.04
- Sup. Fig. 5-2H, open field parameter ([1]; Males + Females): 81.52 and 80.42 and 80.88 and 89.94 and 76.07 and 79.33 and 81.57 and 88.15 and 84.75 and 75.53 and 86.21 and 81.12 and 77.47 and 83.02 and 73.40 and 83.68
- Sup. Fig. 5-2I, open field parameter ([1]; Males + Females): 50.0 and 30.5 and 32.0 and 31.5 and 12.5 and 27.5 and 35.0 and 60.5 and 43.0 and 34.0 and 45.0 and 44.0 and 23.0 and 55.0 and 17.0 and 31.0
- Sup. Fig. 5-2C, open field parameter ([1]; Males): 12.00 and 10.63 and 9.25 and 12.61 and 11.34 and 8.16 and 7.23 and 10.34 and 8.54
- Sup. Fig. 5-2D, open field parameter ([1]; Males): 3556.2 and 3161.5 and 2756.6 and 3753.0 and 3376.0 and 2440.2 and 2163.2 and 3078.1 and 2557.7
- Sup. Fig. 5-2E, open field parameter ([1]; Males): 500.6 and 644.6 and 955.7 and 543.5 and 756.2 and 899.4 and 993.0 and 822.7 and 744.6
- Sup. Fig. 5-2F, open field parameter ([1]; Males): 6.00 and 7.90 and 5.98 and 6.32 and 8.40 and 6.56 and 6.46 and 7.38 and 6.24
- Sup. Fig. 5-2G, open field parameter ([1]; Males): 264.44 and 254.26 and 226.58 and 258.62 and 243.36 and 232.42 and 228.20 and 238.00 and 244.72
- Sup. Fig. 5-2H, open field parameter ([1]; Males): 88.15 and 84.75 and 75.53 and 86.21 and 81.12 and 77.47 and 76.07 and 79.33 and 81.57
- Sup. Fig. 5-2I, open field parameter ([1]; Males): 60.5 and 43 and 34 and 45 and 44 and 23 and 12.5 and 27.5 and 35
- 4-HNE levels ([2]; 3 hours after microinjection in the mouse hippocampus): insignificant reduction
- Sup. Fig. 3B, immunoblot signal ([2]; individual animals): 1.944 and 1.965 and 2.545 and 1.185 and 0.887 and 2.092 and 2.161
